According to publication PMC10713593, “Staphylococcus aureus functional amyloids catalyze degradation of β-lactam antibiotics” (Nature Communications, 2023):
Where no end group is shown, it is not given here.

Assays:
PSMα3 fibrils = PSMα3 fibrils (Staphylococcus aureus, UniProt A9JX07); experiment: LC-MS degradation of amoxicillin and penicillin G with PSMα3 fibrils or buffer; format: biochemical; design: key to Amoxicillin (remaining) / Degraded Amoxicillin (PSMa3) / Degraded Amoxicillin: % relative abundance from extracted ion chromatogram peak areas; settings: for Amoxicillin (remaining) / Degraded Amoxicillin: buffer only (blank); for Amoxicillin (remaining) / Degraded Amoxicillin / Amoxicillin (PSMa3) (remaining) / Degraded Amoxicillin (PSMa3): LC-MS; for Amoxicillin (remaining) / Amoxicillin (PSMa3) (remaining): 366 peak as share of 366+384 sum; for Degraded Amoxicillin / Degraded Amoxicillin (PSMa3): 384 peak as share of 366+384 sum
PSMα3 fibrils, sequence (A9JX07 whole entry, looked up): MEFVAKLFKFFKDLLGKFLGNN
Protocol: Amoxicillin or Penicillin solutions were dissolved in Hepes buffer (50 mM, pH 7.4) in concentration of 50 µM. PSMα3 solution in concentration of 1.54 mM was dissolved in DIW and Hepes buffer was added to the final concentration of 50 mM. The antibiotics’ solutions and preincubated PSMα3 solutions were mixed to final PSMα3 […] 180 µL organic solvent to stop the reaction (acetonitrile for Amoxicillin, methanol in the case of Penicillin). The samples were collected and injected sequentially into the LC-MS analysis.
Waters ACQUITY UPLC I-Class PLUS System coupled with high-resolution Thermo Orbitrap Exploris 240 mass-spectrometer were used for analysis of Amoxicillin and Penicillin-G over time. 1 µL of each sample was injected into the reverse-phase Acquity UPLC BEH C18 1.7 µm, 2.1 × 50 mm column (Waters) and run under a gradient program (Table S2 for Amoxicillin, Table S3 for Penicillin-G). The samples were ionized using soft electrospray ionization in positive mode and detected in a full scan mode in range from 60 to 900 m/z with a resolution of 240,000 Full Width at Half Maximum. MS was tuned according to the manufacture recommendations. Relative abundance of the intact/degraded compounds was calculated by peak area of the extracted ion chromatogram: for Amoxicillin 366.1–366.12, and degraded-Amoxicillin 384.1–384.13 m/z, Penicillin-G 335.1–335.12, for degraded-Penicillin-G 353.1–353.12, for (Figs. S13 and S14, respectively).

[1] = Nitrocefin hydrolysis kinetics (absorbance of degraded nitrocefin at 480 nm; initial rates V0, Michaelis-Menten fit); format: biochemical; design: Initial nitrocefin-degradation reaction rate, V0: unit not given here; settings: nitrocefin 60 µM; for Initial nitrocefin-degradation reaction rate, V0: Hepes pH 7.4, average of the six runs; for nitrocefin degradation yield (turnover): PSMα assemblies 350 µM, Hepes 50 mM pH 7.4, 20 °C, A480, monitored 2 h (Fig. 2a)
Protocol: Nitrocefin, a β-lactam widely used as a surrogate substrate of Penicillin in β-lactamase activity assay, was used as a substrate. NC degradation was monitored for 2 h. Nitrocefin stock solution was dissolved in acetonitrile (20 mM) and then diluted with Hepes buffer (50 mM, pH 7.4) to nitrocefin concentration of 360 µM (further dilutions to lower concentrations were made with the 360 µM NC stock). All nitrocefin samples were kept on ice in cold conditions and any further dilution or mixing was performed in ice-cold conditions to avoid self-hydrolysis background reaction. […] Immediately after mixing the samples, the plate was transferred to 20̊ °C pre-cooled plate reader (Multiskan GO, Thermo Scientific, Waltham, MA) and shaken slowly for 10 s. Then, the absorbance of degraded nitrocefin was measured for 2 h at interval of 20 s at λ = 480 nm. Initial production rates (V0) were calculated by slope of the initial linear range of degraded-nitrocefin production at the first 15 min. The reported results are and average of at least five separate measurements (the exact number of repeats, N, is reported next to the values). Each experiment also included blank samples of nitrocefin substrate diluted with buffer instead of PSMα. […] The initial rate calculations were performed while also subtracting the self-degradation of the substrate, to ensure that this product absorbance is a result of PSMα presence.
The initial rates of degraded-nitrocefin production were calculated from the slopes of the first 15 min of measurement as reported above. The initial rates (V0) were fitted using non-linear regression applied with the solver function in excel, either to Michalis–Menten equation V=Vmax.[S]/(KM+S) Where Vmax. Stands for maximal reaction rate, KM stands for Michalis–Menten constant, [S] stands for the substrate molar concentration. Each initial rate value was presented as average ± SEM. The kinetic parameters were calculated by fitting the data to MM model using non-linear regression, and the confidence intervals for each parameter were calculated accordingly.

CC1(C)S[C@@H]2[C@H](NC(=O)[C@H](N)c3ccc(O)cc3)C(=O)N2[C@H]1C(=O)O [amoxycillin]
hydrolysis by PSMα3 fibrils versus spontaneous degradation (PSMα3 fibrils; antibiotic 40 µM, PSMα3 fibrils 308 µM, Hepes 50 mM pH 7.4, LC-MS (Fig. 6)): significantly higher extent compared to the spontaneous degradation
Amoxicillin (remaining) (PSMα3 fibrils; 0h): 81.4445
Degraded Amoxicillin (PSMα3 fibrils; 0h): 18.5555
Amoxicillin (remaining) (PSMα3 fibrils; 4h): 80.1864
Degraded Amoxicillin (PSMα3 fibrils; 4h): 19.8136
Amoxicillin (remaining) (PSMα3 fibrils; 8h): 79.6866
Degraded Amoxicillin (PSMα3 fibrils; 8h): 20.3134
Amoxicillin (remaining) (PSMα3 fibrils; 12h): 78.9455
Degraded Amoxicillin (PSMα3 fibrils; 12h): 21.0545
Amoxicillin (remaining) (PSMα3 fibrils; 24h): 78.1892
Degraded Amoxicillin (PSMα3 fibrils; 24h): 21.8108
Amoxicillin (remaining) (PSMα3 fibrils; 60h): 69.9317
Degraded Amoxicillin (PSMα3 fibrils; 60h): 30.0683
Amoxicillin (remaining) (PSMα3 fibrils; 72h): 68.3628
Degraded Amoxicillin (PSMα3 fibrils; 72h): 31.6372
Amoxicillin (remaining) (PSMα3 fibrils; 80h): 59.5525
Degraded Amoxicillin (PSMα3 fibrils; 80h): 40.4475
Amoxicillin (PSMa3) (remaining) (PSMα3 fibrils; with PSMa3, 0h): 79.7112
Degraded Amoxicillin (PSMa3) (PSMα3 fibrils; with PSMa3, 0h): 20.2888
Amoxicillin (PSMa3) (remaining) (PSMα3 fibrils; with PSMa3, 4h): 78.2636
Degraded Amoxicillin (PSMa3) (PSMα3 fibrils; with PSMa3, 4h): 21.7364
Amoxicillin (PSMa3) (remaining) (PSMα3 fibrils; with PSMa3, 8h): 74.8273
Degraded Amoxicillin (PSMa3) (PSMα3 fibrils; with PSMa3, 8h): 25.1727
Amoxicillin (PSMa3) (remaining) (PSMα3 fibrils; with PSMa3, 12h): 70.3173
Degraded Amoxicillin (PSMa3) (PSMα3 fibrils; with PSMa3, 12h): 29.6827
Amoxicillin (PSMa3) (remaining) (PSMα3 fibrils; with PSMa3, 24h): 62.2462
Degraded Amoxicillin (PSMa3) (PSMα3 fibrils; with PSMa3, 24h): 37.7538
Amoxicillin (PSMa3) (remaining) (PSMα3 fibrils; with PSMa3, 60h): 12.8041
Degraded Amoxicillin (PSMa3) (PSMα3 fibrils; with PSMa3, 60h): 87.1959
Amoxicillin (PSMa3) (remaining) (PSMα3 fibrils; with PSMa3, 72h): 5.039
Degraded Amoxicillin (PSMa3) (PSMα3 fibrils; with PSMa3, 72h): 94.9606
Amoxicillin (PSMa3) (remaining) (PSMα3 fibrils; with PSMa3, 80h): 3.011
Degraded Amoxicillin (PSMa3) (PSMα3 fibrils; with PSMa3, 80h): 96.9892

CC[C@H](C)[C@H](NC(=O)CNC(=O)[C@@H](N)CCSC)C(=O)N[C@H](C(=O)N[C@@H](C)C(=O)NCC(=O)N[C@H](C(=O)N[C@H](C(=O)N[C@@H](CCCCN)C(=O)N[C@@H](Cc1ccccc1)C(=O)N[C@H](C(=O)N[C@@H](CCCCN)C(=O)NCC(=O)N[C@@H](CC(C)C)C(=O)N[C@H](C(=O)N[C@@H](CCC(=O)O)C(=O)N[C@@H](CCCCN)C(=O)N[C@@H](Cc1ccccc1)C(=O)N[C@H](C(=O)NCC(=O)N[C@@H](CCCCN)C(=O)O)[C@@H](C)O)[C@@H](C)CC)[C@@H](C)CC)[C@@H](C)CC)[C@@H](C)CC)[C@@H](C)CC [PSMα2]
ATR-FTIR amide-I peak/maximum: 1650 cm⁻¹
Initial nitrocefin-degradation reaction rate, V0 ([1]; PSMα 4.01424 uM): 1.158
Initial nitrocefin-degradation reaction rate, V0 ([1]; PSMα 6.02136 uM): -0.4109
Initial nitrocefin-degradation reaction rate, V0 ([1]; PSMα 9.03205 uM): 0.9321
Initial nitrocefin-degradation reaction rate, V0 ([1]; PSMα 13.5481 uM): 0.6055
Initial nitrocefin-degradation reaction rate, V0 ([1]; PSMα 20.3221 uM): 1.35
Initial nitrocefin-degradation reaction rate, V0 ([1]; PSMα 30.4832 uM): 1.3793
Initial nitrocefin-degradation reaction rate, V0 ([1]; PSMα 45.7247 uM): 2.588
Initial nitrocefin-degradation reaction rate, V0 ([1]; PSMα 68.5871 uM): 11.4228
Initial nitrocefin-degradation reaction rate, V0 ([1]; PSMα 102.881 uM): 36.0382
Initial nitrocefin-degradation reaction rate, V0 ([1]; PSMα 154.321 uM): 59.4111
Initial nitrocefin-degradation reaction rate, V0 ([1]; PSMα 231.481 uM): 94.344
Initial nitrocefin-degradation reaction rate, V0 ([1]; PSMα 347.222 uM): 117.315
nitrocefin degradation yield (turnover) [1]: ~100%

MGIIAGIIKVIKSLIEQFTGK [PSMα1]
ATR-FTIR amide-I peak/maximum: 1650 cm⁻¹
Initial nitrocefin-degradation reaction rate, V0 ([1]; PSMα 4.01424 uM): 0.191
Initial nitrocefin-degradation reaction rate, V0 ([1]; PSMα 6.02136 uM): -0.01182
Initial nitrocefin-degradation reaction rate, V0 ([1]; PSMα 9.03205 uM): -0.1032
Initial nitrocefin-degradation reaction rate, V0 ([1]; PSMα 13.5481 uM): -0.1644
Initial nitrocefin-degradation reaction rate, V0 ([1]; PSMα 20.3221 uM): -0.2267
Initial nitrocefin-degradation reaction rate, V0 ([1]; PSMα 30.4832 uM): -0.2129
Initial nitrocefin-degradation reaction rate, V0 ([1]; PSMα 45.7247 uM): -0.2655
Initial nitrocefin-degradation reaction rate, V0 ([1]; PSMα 68.5871 uM): -0.7898
Initial nitrocefin-degradation reaction rate, V0 ([1]; PSMα 102.881 uM): 9.2527
Initial nitrocefin-degradation reaction rate, V0 ([1]; PSMα 154.321 uM): 10.6002
Initial nitrocefin-degradation reaction rate, V0 ([1]; PSMα 231.481 uM): 20.6526
Initial nitrocefin-degradation reaction rate, V0 ([1]; PSMα 347.222 uM): 27.2811
nitrocefin degradation yield (turnover) [1]: ~ 50%

CC[C@H](C)[C@H](NC(=O)[C@H](C)NC(=O)[C@@H](N)CCSC)C(=O)N[C@H](C(=O)NCC(=O)N[C@H](C(=O)N[C@H](C(=O)N[C@H](C(=O)N[C@@H](CCCCN)C(=O)N[C@H](C(=O)N[C@H](C(=O)N[C@@H](CCCCN)C(=O)N[C@@H](C)C(=O)N[C@H](C(=O)N[C@H](C(=O)N[C@@H](CC(=O)O)C(=O)N[C@H](C(=O)N[C@@H](Cc1ccccc1)C(=O)N[C@@H](C)C(=O)N[C@@H](CCCCN)C(=O)O)[C@@H](C)CC)[C@@H](C)CC)[C@@H](C)CC)[C@@H](C)CC)[C@@H](C)CC)[C@@H](C)CC)[C@@H](C)CC)[C@@H](C)O)C(C)C [PSMα4]
ATR-FTIR amide-I peak/maximum: 1620 cm⁻¹
Initial nitrocefin-degradation reaction rate, V0 ([1]; PSMα 4.01424 uM): 0.5451
Initial nitrocefin-degradation reaction rate, V0 ([1]; PSMα 6.02136 uM): 0.5496
Initial nitrocefin-degradation reaction rate, V0 ([1]; PSMα 9.03205 uM): -0.2169
Initial nitrocefin-degradation reaction rate, V0 ([1]; PSMα 13.5481 uM): 1.372
Initial nitrocefin-degradation reaction rate, V0 ([1]; PSMα 20.3221 uM): 0.8016
Initial nitrocefin-degradation reaction rate, V0 ([1]; PSMα 30.4832 uM): 1.8
Initial nitrocefin-degradation reaction rate, V0 ([1]; PSMα 45.7247 uM): 3.313
Initial nitrocefin-degradation reaction rate, V0 ([1]; PSMα 68.5871 uM): -1.824
Initial nitrocefin-degradation reaction rate, V0 ([1]; PSMα 102.881 uM): 15.0899
Initial nitrocefin-degradation reaction rate, V0 ([1]; PSMα 154.321 uM): 17.903
Initial nitrocefin-degradation reaction rate, V0 ([1]; PSMα 231.481 uM): 15.5904
Initial nitrocefin-degradation reaction rate, V0 ([1]; PSMα 347.222 uM): 26.4203
nitrocefin degradation yield (turnover) [1]: ~ 15%
